PMC3250956, “Functional characterization and analgesic effects of mixed cannabinoid receptor/T-type channel ligands” (Molecular Pain, 2011)

Columns and labels:
human 5-HT2A = molecular target: T1, human 5-HT2A (Homo sapiens, UniProt P28223); assay: Primary radioligand competitive binding assay, [3H]ketanserin; conditions: ligand 10 μM, HEK293 cells
T1 construct: expressed in transfected cells; host or cells: HEK293 (Flp-In system, pcDNA5.0FRT)
Experimental: (§1) HEK293 cells and CHO cells were used in the radioligand binding assay while tsA-201 cells were used in the electrophysiological study. Human CB2, human 5-HT2A, rat 5-HT2C used in the binding studies were cloned into pcDNA5.0FRT and cell lines were made using the FlpIn system from Invitrogen. tsA-201 cell culture and transient calcium channel transfection were performed as described previously. In brief, tsA-201 cells were transfected using the calcium phosphate method. Cav3.1, 3.2 and 3.3 α1 subunits were transfected individually with yellow fluorescent protein as a transfection marker.
(§2) Radioligand binding data were obtained using National Institute of Mental Health's Psychoactive Drug Screening Program (NIMH/PDSP) using the same protocol described for CB1 and CB2 binding experiments. Transfected HEK293 (human 5-HT2A or rat 5-HT2C) cells were used. The radioligands were [^3H]ketanserin (0.5 nM) and [^3H]mesulergine (0.5 nM) for respectively 5-HT2A and 5-HT2C experiments. Non-specific binding was determined in the presence of 10 μM chlorpromazine for both 5-HT2A and 5-HT2C binding experiments. Cells were harvested and homogenized in 50 mM Tris HCl, 10 mM MgCl2, 0.1 mM EDTA, pH 7.4. Incubation of radioreceptor binding assay mixtures was 1.5 hours at room temperature in the dark.

rat 5-HT2C = molecular target: T2, rat 5-HT2C (Rattus norvegicus, UniProt P08909); assay: Primary radioligand competitive binding assay, [3H]mesulergine; conditions: ligand 10 μM, HEK293 cells
T2 construct: expressed in transfected cells; host or cells: HEK293 (Flp-In system, pcDNA5.0FRT)
T2 sequence (P08909 33-460): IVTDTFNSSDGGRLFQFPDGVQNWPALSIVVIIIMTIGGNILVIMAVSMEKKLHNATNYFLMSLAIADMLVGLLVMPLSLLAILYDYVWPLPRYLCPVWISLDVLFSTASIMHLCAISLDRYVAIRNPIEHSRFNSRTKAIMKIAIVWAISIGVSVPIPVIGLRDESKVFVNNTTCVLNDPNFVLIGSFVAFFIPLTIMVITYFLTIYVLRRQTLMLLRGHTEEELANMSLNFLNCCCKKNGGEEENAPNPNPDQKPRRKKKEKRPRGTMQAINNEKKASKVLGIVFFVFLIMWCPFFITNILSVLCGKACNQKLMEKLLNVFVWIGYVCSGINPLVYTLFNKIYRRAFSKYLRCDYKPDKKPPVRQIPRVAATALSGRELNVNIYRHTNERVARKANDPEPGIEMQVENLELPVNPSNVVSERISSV
Experimental: as §1, §2

Rat CB1 = molecular target: T3, Rat CB1 (Rattus norvegicus, UniProt P20272); assay: Radioligand competitive binding, [3H]CP55940, rat brain homogenate; conditions: for Rat CB1 (%) primary radioligand competitive binding: ligand 10 μM, rat brain homogenates
T3 construct: membrane fractions prepared from rat brain homogenate expressing CB1 receptor; from tissue; host or cells: rat brain homogenate
T3 sequence (P20272 whole entry): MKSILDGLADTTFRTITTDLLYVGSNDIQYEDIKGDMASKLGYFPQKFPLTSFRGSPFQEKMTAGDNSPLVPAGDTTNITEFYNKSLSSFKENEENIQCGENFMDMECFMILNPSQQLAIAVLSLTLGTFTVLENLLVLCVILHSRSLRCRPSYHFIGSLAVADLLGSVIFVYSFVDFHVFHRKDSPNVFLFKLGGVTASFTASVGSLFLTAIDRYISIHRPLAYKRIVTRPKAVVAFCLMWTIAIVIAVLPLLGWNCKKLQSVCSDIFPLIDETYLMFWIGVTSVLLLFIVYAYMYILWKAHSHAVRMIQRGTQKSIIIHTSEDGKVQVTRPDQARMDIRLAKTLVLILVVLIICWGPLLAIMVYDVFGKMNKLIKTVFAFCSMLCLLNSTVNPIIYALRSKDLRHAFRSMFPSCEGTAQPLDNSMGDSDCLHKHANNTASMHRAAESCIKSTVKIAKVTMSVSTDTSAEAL
Experimental: (§3) CB1 and CB2 radioligand binding data were obtained using National Institute of Mental Health (NIMH) Psychoactive Drug Screening Program (PDSP) resources as described earlier. Compounds were screened in a competitive binding experiment using, respectively, membrane fractions prepared from rat brain homogenate expressing CB1 receptor and HEK293 cells expressing the human CB2 receptor. Experiments were conducted at a range of different concentrations and in duplicate. The competition binding experiment for CB1 and CB2 was performed in 96 well plates containing Standard Binding Buffer (50 mM Tris HCl, 1 mM EDTA, 3 mM MgCl2, 5 mg/ml fatty acid-free BSA, pH 7.4). The radioligand was [^3H]CP55940, and the reference compound was CP55940. A solution of the compound to be tested was prepared as a 1 mg/ml stock in DMSO and then diluted in Standard Binding Buffer by serial dilution. Radioligand was diluted to five times the assay concentration in Standard Binding Buffer. Aliquots (50 μl) of radioligand were dispensed into the wells of a 96-well plate containing 100 μl of Standard Binding Buffer. Then, duplicate 50-μl aliquots of the test and reference compound dilutions were added. Finally, crude membrane fractions of cells were resuspended in 3 ml of chilled Standard Binding Buffer and homogenized by several passages through a 26 gauge needle, then 50 μl were dispensed into each well. The 250-μl reactions were incubated at room temperature for 1.5 hours, and then harvested by rapid filtration onto Whatman GF/B glass fiber filters pre-soaked with 0.3% polyethyleneimine using a 96-well Brandel harverster. Four rapid 500-μl washes were performed. Filters were placed in 6-ml scintillation tubes and allowed to dry overnight. Bound radioactivity was harvested onto 0.3% polyethyleneimine-treated, 96-well filter mats using a 96-well Filtermate harvester. The filter mats were dried, then scintillant was melted onto the filters and the radioactivity retained on the filters counted in a Microbeta scintillation counter. Raw data (dpm) representing total radioligand binding (i.e., specific + non-specific binding) were plotted as a function of the logarithm of the molar concentration of the competitor (i.e., test or reference compound). Non-linear regression of the normalized (i.e., percent radioligand binding compared to that observed in the absence of test or reference compound) raw data was performed in Prism 4.0 (GraphPad Software) using the built-in three parameter logistic model describing ligand competition binding to radioligand-labeled sites: y = bottom + [(top-bottom)/(1 + 10 × -logIC50)] where bottom equals the residual radioligand binding measured in the presence of 10 μM reference compound (i.e., non-specific binding) and top equals the total radioligand binding observed in the absence of competitor. The log IC50 (i.e., the log of the ligand concentration that reduces radioligand binding by 50%) is thus estimated from the data and used to obtain the Ki by applying the Cheng-Prusoff approximation: Ki = IC50/(1 + [ligand]/KD) where [ligand] equals the assay radioligand concentration and KD equals the affinity constant of the radioligand for the target receptor.

Human CB2 [1] = molecular target: T4, Human CB2 (Homo sapiens, UniProt P34972); assay: Radioligand competitive binding, [3H]CP55940, HEK293 cells; design: expressed in transfected cells; conditions: for Ki: NA: not active at 1 μM, read-out: Mean Ki Human CB2
T4 sequence (P34972 whole entry): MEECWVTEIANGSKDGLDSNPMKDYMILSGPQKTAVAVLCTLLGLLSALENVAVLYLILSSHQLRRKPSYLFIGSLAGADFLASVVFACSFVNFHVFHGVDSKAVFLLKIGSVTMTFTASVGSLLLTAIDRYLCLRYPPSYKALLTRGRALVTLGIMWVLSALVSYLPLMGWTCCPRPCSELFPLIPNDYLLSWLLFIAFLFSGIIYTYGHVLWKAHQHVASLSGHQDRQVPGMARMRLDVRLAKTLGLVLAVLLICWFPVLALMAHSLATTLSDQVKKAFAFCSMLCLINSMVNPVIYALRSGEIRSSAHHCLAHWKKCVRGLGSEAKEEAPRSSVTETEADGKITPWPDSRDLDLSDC
Experimental: as §1, §3

Human CB1 = Human CB1 (Homo sapiens, UniProt P21554); assay: GTPγ[35S] functional assay, CHO cell membrane extracts; conditions: NA: not active at 1 μM
Sequence of Human CB1 (P21554 whole entry): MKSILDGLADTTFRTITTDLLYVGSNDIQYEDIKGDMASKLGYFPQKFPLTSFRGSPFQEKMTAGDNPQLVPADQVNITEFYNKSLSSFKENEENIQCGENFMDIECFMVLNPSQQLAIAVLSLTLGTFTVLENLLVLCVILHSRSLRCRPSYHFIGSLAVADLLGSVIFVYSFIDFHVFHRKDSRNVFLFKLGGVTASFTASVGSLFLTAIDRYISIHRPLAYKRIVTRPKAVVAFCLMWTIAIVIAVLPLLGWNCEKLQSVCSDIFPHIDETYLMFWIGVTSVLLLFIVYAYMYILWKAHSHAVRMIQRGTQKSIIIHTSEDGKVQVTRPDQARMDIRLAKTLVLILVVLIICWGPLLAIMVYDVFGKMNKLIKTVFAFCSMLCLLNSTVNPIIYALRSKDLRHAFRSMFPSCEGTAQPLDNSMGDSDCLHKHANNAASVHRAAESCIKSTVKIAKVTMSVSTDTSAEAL

Human CB2 [2] = molecular target: T4, Human CB2; assay: as above; assay type: biochemical; design: expressed in transfected cells; host or cells: CHO cells (membrane extracts)
[3] = system: T-type calcium channels (Cav3.1, Cav3.2, Cav3.3); assay: Whole-cell patch-clamp screen on recombinant T-type calcium channels in tsA-201 cells; assay type: cell-based, human; conditions: 10 μM; held at -100 mV, pulse to -20 mV; barium current; three Cav3 isoforms
Text: Studies have shown that several endocannabinoids and phytocannabinoids have direct inhibitory actions on T-type voltage-gated calcium channels. To determine whether the NMP compounds produced a similar effect, we characterized their actions on transiently expressed T-type calcium channels via whole-cell patch-clamp recordings. Cells were held at -100 mV and barium current was evoked by a depolarizing pulse to -20 mV.
as §1, with “Cav3.1, 3.2 and 3.3 α1 subunits were transfected individually with yellow fluorescent protein as a transfection marker.” left out
Whole-cell currents were recorded from tsa-201 cells 2-4 days after transfection. […] Currents were elicited from a holding potential of -100 mV and were measured by conventional whole-cell patch clamp using an Axopatch 200B amplifier in combination with Clampex 9.2 software (Axon Instruments, Foster City, CA). […] Electrophysiological data were analyzed using Clampfit 9.2 (Axon Instruments, Foster City, CA) and GraphPad Prism 5 software (GraphPad Software Inc., San Diego, CA). […]

T1 sequence (P28223 whole entry): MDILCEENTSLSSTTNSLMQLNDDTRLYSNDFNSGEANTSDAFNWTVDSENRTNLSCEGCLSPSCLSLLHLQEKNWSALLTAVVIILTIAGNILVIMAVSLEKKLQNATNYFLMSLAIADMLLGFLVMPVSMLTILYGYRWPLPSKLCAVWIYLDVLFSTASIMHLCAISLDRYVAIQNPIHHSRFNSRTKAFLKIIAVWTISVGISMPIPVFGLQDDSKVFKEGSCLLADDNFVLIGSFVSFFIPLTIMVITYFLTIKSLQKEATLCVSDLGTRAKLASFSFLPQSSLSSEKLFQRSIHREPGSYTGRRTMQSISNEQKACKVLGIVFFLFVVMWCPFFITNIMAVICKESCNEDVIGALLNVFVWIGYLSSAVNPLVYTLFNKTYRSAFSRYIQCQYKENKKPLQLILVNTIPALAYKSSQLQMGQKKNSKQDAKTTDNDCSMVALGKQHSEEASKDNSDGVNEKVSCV

Row | Compound | Human 5-HT2A (%) primary radioligand competitive binding (human 5-HT2A) [%] | Rat 5-HT2C (%) primary radioligand competitive binding (rat 5-HT2C) [%] | Ki (Rat CB1; NA: not active at 1 μM, read-out: Mean Ki Rat CB1) [nM] | Rat CB1 (%) primary radioligand competitive binding (Rat CB1) [%] | Ki (Human CB2 [1]) [nM] | Human CB2 (%) primary radioligand competitive binding (Human CB2 [1]; ligand 10 μM, HEK293 cells) [%] | GTPγ[35S] functional assays Human CB1 EC50 (Human CB1) | EC50 (Human CB2 [2]; read-out: GTPγ[35S] functional assays Human CB2 EC50) [nM] | Emax (Human CB2 [2]; read-out: GTPγ[35S] functional assays Human CB2 Emax) [%] | inhibition of T-type current [3] [%]
1 | CCCCCn1c2c(c3ccccc31)C[C@@H](C(=O)N1CCCCC1)NC2 [NMP-141] | 11.9 | -8.4 | 906 ± 211 | 88.6 | 481 ± 52.9 | 88.7 | did not show any agonistic or antagonistic activities | 112 ± 3.3 | 51.9 | –
2 | CCCCCn1c2ccccc2c2cc(C(=O)NCCc3ccc(Cl)cc3)ccc21 [NMP-139] | 7.7 | -7.8 | – | 46.3 | 3590 ± 424 | – | – | – | – | < 20
